Results reported in ChEMBL document CHEMBL5370539, “Oxazole-4-carboxamide/butylated hydroxytoluene hybrids with GSK-3β inhibitory and neuroprotective activities against Alzheimer's disease” (Eur J Med Chem, 2023).
The source made the active and inactive calls. The calls are words filed in the database; no cut-off is given here.

How the values were obtained:
[1] = target: T1, Glycogen synthase kinase-3 beta (Homo sapiens, UniProt P49841); assay: Inhibition of recombinant human GSK-3beta using YRRAAVPPSPSLSRHSSPHQ(pS)EDEE as substrate preincubated for 15 mins followed by substrate addition and measured after 60 mins by Kinase-Glo luminescent kinase assay
Target sequence in this assay (P49841 whole entry): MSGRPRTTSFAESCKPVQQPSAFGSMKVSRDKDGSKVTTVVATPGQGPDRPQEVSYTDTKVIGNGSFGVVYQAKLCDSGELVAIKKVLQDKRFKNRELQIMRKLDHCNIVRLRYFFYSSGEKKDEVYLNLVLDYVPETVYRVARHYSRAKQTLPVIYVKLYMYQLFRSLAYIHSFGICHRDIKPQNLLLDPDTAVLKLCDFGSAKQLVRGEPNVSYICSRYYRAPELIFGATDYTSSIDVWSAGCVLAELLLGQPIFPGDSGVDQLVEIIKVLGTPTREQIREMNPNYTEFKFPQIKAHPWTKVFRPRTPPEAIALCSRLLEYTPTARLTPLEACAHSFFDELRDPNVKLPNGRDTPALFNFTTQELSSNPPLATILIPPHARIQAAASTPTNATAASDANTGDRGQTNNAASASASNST

L02 = assay: Cytotoxicity against human L02 cells assessed as cell viability at 6.25 to 100 uM incubated for 24 hrs by MTT assay; format: toxicity, cell-based; conditions: l02, 24 h, dose 6.25-100 µM
[2] = target: T1, Glycogen synthase kinase-3 beta; assay: Inhibition of human GSK-3beta overexpressed in human HEK293T cells assessed as decrease in Tau phosphorylation at s396 at 0.625 to 10 uM incubated for 24 hrs by Western blot analysis; format: cell-based; conditions: dose 0.625-10 µM
Target sequence in this assay (P49841 whole entry, looked up): as the sequence (P49841 whole entry) above

PC-12 [3] = assay: Neuroprotective activity against rat PC12 cells assessed as decrease in H2O2-induced mitochondrial membrane potential level at 10 uM preincubated for 12 hrs followed by replacement with fresh media and H2O2 stimulation for 12 hrs by JC-1 dye based flow cytometry (Rvb=95.3%); format: functional; parameters: scale not given: the % may be the effect or the level left
PC-12 [4] = assay: Neuroprotective activity against rat PC12 cells assessed as decrease in H2O2-induced intracellular Ca2+ level at 2.5 uM preincubated for 12 hrs followed by replacement with fresh media and H2O2 stimulation for 12 hrs by Fluo-3 AM based flow cytometry relative to control; format: functional; parameters: scale not given: the % may be the effect or the level left
PC-12 [5] = assay: Neuroprotective activity against rat PC12 cells assessed as decrease in H2O2-induced intracellular Ca2+ level at 5 uM preincubated for 12 hrs followed by replacement with fresh media and H2O2 stimulation for 12 hrs by Fluo-3 AM based flow cytometry relative to control; format: functional; parameters: scale not given: the % may be the effect or the level left
PC-12 [6] = assay: Neuroprotective activity against rat PC12 cells assessed as decrease in H2O2-induced intracellular Ca2+ level at 10 uM preincubated for 12 hrs followed by replacement with fresh media and H2O2 stimulation for 12 hrs by Fluo-3 AM based flow cytometry relative to control; format: functional; parameters: scale not given: the % may be the effect or the level left
PC-12 [7] = assay: Anti-apoptotic activity against H2O2-induced apoptosis in rat PC12 cells assessed as dead cells at 2.5 uM preincubated for 12 hrs followed by replacement with fresh media and H2O2 stimulation for 12 hrs by Annexin-V/7-AAD staining based flow cytometry (Rvb=4.1%); format: functional
PC-12 [8] = assay: Anti-apoptotic activity against H2O2-induced apoptosis in rat PC12 cells assessed as dead cells at 5 uM preincubated for 12 hrs followed by replacement with fresh media and H2O2 stimulation for 12 hrs by Annexin-V/7-AAD staining based flow cytometry (Rvb=4.1%); format: functional
PC-12 [9] = assay: Anti-apoptotic activity against H2O2-induced apoptosis in rat PC12 cells assessed as late apoptotic cells at 10 uM preincubated for 12 hrs followed by replacement with fresh media and H2O2 stimulation for 12 hrs by Annexin-V/7-AAD staining based flow cytometry (Rvb=2.2 %); format: functional
PC-12 [10] = assay: Anti-apoptotic activity against H2O2-induced apoptosis in rat PC12 cells assessed as early apoptotic cells at 2.5 uM preincubated for 12 hrs followed by replacement with fresh media and H2O2 stimulation for 12 hrs by Annexin-V/7-AAD staining based flow cytometry (Rvb=0.8%); format: functional
PC-12 [11] = assay: Anti-apoptotic activity against H2O2-induced apoptosis in rat PC12 cells assessed as early apoptotic cells at 5 uM preincubated for 12 hrs followed by replacement with fresh media and H2O2 stimulation for 12 hrs by Annexin-V/7-AAD staining based flow cytometry (Rvb=0.8%); format: functional
PC-12 [12] = assay: Anti-apoptotic activity against H2O2-induced apoptosis in rat PC12 cells assessed as early apoptotic cells at 10 uM preincubated for 12 hrs followed by replacement with fresh media and H2O2 stimulation for 12 hrs by Annexin-V/7-AAD staining based flow cytometry (Rvb=0.8%); format: functional
PC-12 [13] = assay: Anti-apoptotic activity against H2O2-induced apoptosis in rat PC12 cells assessed as living cells at 2.5 uM preincubated for 12 hrs followed by replacement with fresh media and H2O2 stimulation for 12 hrs by Annexin-V/7-AAD staining based flow cytometry (Rvb=92.9%); format: functional
PC-12 [14] = assay: Anti-apoptotic activity against H2O2-induced apoptosis in rat PC12 cells assessed as living cells at 5 uM preincubated for 12 hrs followed by replacement with fresh media and H2O2 stimulation for 12 hrs by Annexin-V/7-AAD staining based flow cytometry (Rvb=92.9%); format: functional
PC-12 [15] = assay: Anti-apoptotic activity against H2O2-induced apoptosis in rat PC12 cells assessed as living cells at 10 uM preincubated for 12 hrs followed by replacement with fresh media and H2O2 stimulation for 12 hrs by Annexin-V/7-AAD staining based flow cytometry (Rvb=92.9%); format: functional
PC12 [16] = assay: Activation of Nrf2-ARE pathway in rat PC-12 cells assessed as increase in Nrf2 expression level at 2.5 to 10 uM incubated for 12 hrs by Western blot analysis; format: cell-based; conditions: filed as activator, dose 2.5-10 µM
PC12 [17] = assay: Activation of Nrf2-ARE pathway in rat PC-12 cells assessed as increase in TrxR1 expression level at 2.5 to 10 uM incubated for 6 hrs by Western blot analysis; format: cell-based; conditions: filed as activator, dose 2.5-10 µM
PC12 [18] = assay: Activation of Nrf2-ARE pathway in rat PC-12 cells assessed as increase in HO-1 expression level at 2.5 to 10 uM incubated for 6 hrs by Western blot analysis; format: cell-based; conditions: filed as activator, dose 2.5-10 µM
PC12 [19] = assay: Activation of Nrf2-ARE pathway in rat PC-12 cells assessed as increase in NQO1 expression level at 2.5 to 10 uM incubated for 12 hrs by Western blot analysis; format: cell-based; conditions: filed as activator, dose 2.5-10 µM
PC12 [20] = assay: Activation of Nrf2-ARE pathway in rat PC-12 cells assessed as increase in GCLM expression level at 2.5 to 10 uM incubated for 24 hrs by Western blot analysis; format: cell-based; conditions: filed as activator, dose 2.5-10 µM
PC12 [21] = assay: Activation of Nrf2-ARE pathway in rat PC-12 cells assessed as increase in Nrf2 expression level in nucleus at 10 uM incubated for 3 hrs by Western blot analysis; format: cell-based; conditions: filed as activator
[22] = Toxicity in okadaic acid-induced cognitive impairment ICR mouse model assessed as body weight change at 0.08 to 0.24 mg/kg, iv twice at 3days interval before and after okadaic acid stimulation measured upto 14 days; format: organism-based; conditions: in vivo, 336 h, dose 0.08-0.24 mg/kg, time < 14 day
[23] = Toxicity in okadaic acid-induced cognitive impairment ICR mouse model assessed as swimming speed change at 0.08 to 0.24 mg/kg, iv twice at 3days interval before and after okadaic acid stimulation measured for 5 days by Morris water maze test; format: organism-based; conditions: in vivo, 120 h, dose 0.08-0.24 mg/kg, time 5 day
Mus musculus [24] = assay: (§1) Antialzheimer activity in okadaic acid-induced cognitive impairment ICR mouse model assessed as reduction in escape time at 0.08 to 0.24 mg/kg, iv twice at 3days interval before and after okadaic acid stimulation measured upto 14 days by Morris water maze test relative to control; format: functional, organism-based; conditions: dose 0.08-0.24 mg/kg, time <= 14.0 day
Mus musculus [25] = assay: as §1, with “increase” for “reduction”, “number of groups crossing virtual platform” for “escape time”; format: functional, organism-based; conditions: dose 0.08-0.24 mg/kg, time <= 14.0 day
Mus musculus [26] = assay: Antialzheimer activity in okadaic acid-induced cognitive impairment ICR mouse model assessed as path tracing at 0.08 to 0.24 mg/kg, iv twice at 3days interval before and after okadaic acid stimulation measured upto 14 days by Morris water maze test relative to control; format: functional, organism-based; conditions: dose 0.08-0.24 mg/kg, time <= 14.0 day

COc1ccc(-c2ocnc2C(=O)NCCCc2ccc(NC(=O)/C=C/c3cc(C(C)(C)C)c(O)c(C(C)(C)C)c3)cc2)cc1Cl
IC50 [1]: 0.25 nM
Activity (L02): Non-Toxic
inhibition [2]: Dose-Dependent Effect
Activity (PC-12 [3]): 81.3%
Activity (PC-12 [4]): 24.5%
Activity (PC-12 [5]): 28.4%
Activity (PC-12 [6]): 31.1%
Activity (PC-12 [7]): 1.3%
Activity (PC-12 [8]): 2.5%
Activity (PC-12 [9]): 6%
Activity (PC-12 [10]): 5.5%
Activity (PC-12 [11]): 1.5%
Activity (PC-12 [12]): 2%
Activity (PC-12 [13]): 76.8%
Activity (PC-12 [14]): 93.1%
Activity (PC-12 [15]): 90.7%
Activity (PC12 [16]): Dose-Dependent Effect
Activity (PC12 [17]): Dose-Dependent Effect
Activity (PC12 [18]): Dose-Dependent Effect
Activity (PC12 [19]): Dose-Dependent Effect
Activity (PC12 [20]): Dose-Dependent Effect
Activity (PC12 [21]): Active
Activity [22]: Non-Toxic
Activity [23]: Non-Toxic
Activity (Mus musculus [24]): Dose-Dependent Effect
Activity (Mus musculus [25]): Active
Activity (Mus musculus [26]): Active
